# Assay results as given in patent publication US5721211A, “Compositions and methods for treating small cell and nonsmall cell lung cancers” (The George Washington University, priority 1993, dated 1998).
# Ends that are not written are not given here.
# Columns and labels:
# [1] = test system: lung cancer cells or plasma membranes derived therefrom; experiment: direct binding of labeled thymosin to lung cancer cells or plasma membranes; details: 125I-Tyr labeled ligand
# From the text: Direct, i.e., noncompetitive, binding of a labeled ligand to intact cells or plasma membranes may be determined. […] These and other experiments not detailed here indicate that the thymosins may not have specific receptors. Palaszynski, E., Biochemical Studies on Thymosin α1, Ph.D. Thesis, George Washington University, Washington, D.C., 1981. It is thus all the more suprising and unexpected that certain thymosins have such profound inhibitory effects on the binding of VIP to its specific receptors and on the growth promoting effects of VIP in lung cancer cells.
# [2] = test system: NCI-H510 lung cancer cells; experiment: NCI-H510 growth in vivo; design: species or system nude mice; details: 10 μg s.c. daily, week 4, mean of 3 tumors
# Description: In a procedure substantially as set forth in Moody et al. (1993) supra, NCI-H510 lung cancer cells were injected into nude mice, and tumors formed after one week. The compounds listed in Table V below (produced as described above) were injected (100 microliters) subcutaneously daily. Tumors were measured at week 4.
# [3] = test system: NCI-H1299 lung cancer cells; experiment: 3H-arachidonic acid (AA) release; assay type: cell-based; details: 1 μM; 4 determinations
# Description: In a procedure substantially as set forth in Moody et al. (1993) supra, NCI-H1299 lung cancer cells were loaded with ^3 H-AA overnight, and after removal of free ^3 H-AA cells, were treated with increasing concentrations of THNα1(1-16)amide (Δ), THNα1 (.largecircle.) and THNα1amide (.box-solid.) (produced as described above). The mean value ± S.E. of 4 determinations is indicated; *,p<0.05; ** p<0.01.
# [4] = test system: tumors of both SCLC and NSCLC types of lung cancer cells; design: species or system nude mice; details: mouse, in vivo
# [5] = test system: NCI-H720 (lung carcinoid cancer cells); experiment: soft agar colonization, NCI-H720; assay type: cell-based; details: 1 μM; for NCI-H720 (carcinoid) colonies: colonies greater than 50 μm, mean ± S.E. of 3
# Description: (§1) The effects of THNα1 on the growth of lung cancer cell lines was studied. Single viable cells were plated in soft agar as previously described (Mahmoud, S., et al., Life Sci., 44:367 (1989)), and, after two weeks, the colonies were stained with 0.1% p-iodonitrotetrazolium violet.
# (§2) The experimental conditions of Example 3 were repeated with NCI-H720 (lung carcinoid cancer cells) and NCI-N417 (SCLC lung cancer cells) cell lines. Colonies were counted as before.
# [6] = test system: NCI-N417 (SCLC lung cancer cells); experiment: soft agar colonization, NCI-N417; assay type: cell-based; details: 1 μM; for (SCLC) N417 colonies: colonies greater than 50 μm, mean ± S.E. of 3
# Description: as §1, §2
# [7] = test system: lung cancer cells; experiment: in vitro colonization of lung cancer cells (general statement); assay type: cell-based
# Description: Candidate anti-lung cancer peptides and antibodies may be screened in vitro in a soft agar colonization assay such as that described by Mahmoud, S., et al., Life Sci., 44:367 (1989) which is herein incorporated by reference. In general, single viable lung cancer cells are plated in soft agar. After an appropriate growth period, such as 14 days, cell colonies may be stained with an appropriate cytochemical stain, and the stained cells viewed microscopically. Cytochemical stains are well known to those skilled in the art of histology.
substance,measurement,setting,value
"(^125 I-Tyr)-labeled THNα1: 125I-Tyr labeled THNα1 used for direct binding analyses (SDAAVDTSSEITTKDLKEKKEVVEEAEN; ends and bridges not checked; also: 125I-Tyr label, place not given here; UniProt P06454 2-29, looked up)",direct (noncompetitive) binding affinity,[1],bind with poor affinity
"Ac-SDAAVDTSSEITTKDL-NH2 [THNα1-N16 (1-16) amide, Ac-Ser-Asp-Ala-Ala-Val-Asp-Thr-Ser-Ser-Glu-Ile-Thr-Thr-Lys-Asp- Leu-NH2]",Tumor volume,[2],410 mm^3
same,Tumor volume,[2]; listed as THNα1-N16 (1-16)amide,strongly inhibit
same,3H-AA release,[3],significantly stimulate
"Ac-SDAAVDTSSEITTKDLKEKKEVVEEAEN [THNα1, thymosin α1]",toxic side effects,[4],No toxic side effects were observed
"thymosin β4 (SDKPDMAEIEKFDKSKLKKTETQEKNPLPSKETIEQEKQAGES; Thymosin beta-4; UniProt P62328 2-44, looked up) [THN β4, a 43-amino acid peptide, MW 4982]","N/No, NCI-H720",[5],0.93
same,NCI-H720 (carcinoid) colonies,[5],68 ± 20
same,NCI-H720 (carcinoid) colonies,[5]; listed as THNβ4,did not influence colony number significantly
same,"N/No, N417",[6],1.20
same,(SCLC) N417 colonies,[6],240 ± 68
same,(SCLC) N417 colonies,[6]; listed as THNβ4,did not influence colony number significantly
same,colony formation of lung cancer cells in vitro,[7],little effect
